Data on 22 compounds can be found in PubChem BioAssay (NCI).

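In this assay, cells in 96-well plates receive the compound at five concentrations for 48 hours. Endpoints are linearly interpolated between the surrounding concentrations. At the GI50, growth is halved. TGI denotes the concentration required for complete inhibition of growth.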

Test systems include U251 CNS; HCT-116 colon; SK-MEL-5 melanoma; NCI-H226 lung; OVCAR-8 ovarian; SNB-75 CNS; HCC-2998 colon; 786-0 renal; UACC-257 melanoma.
Common to all, as to assay: DTP human tumour cell line panel, 48 h

Consider `O=C(NC(=Nc1ccccc1)SCSC(=Nc1ccccc1)NC(=O)c1ccco1)c1ccco1`, for which the TGI in the assay on U251 CNS was over 100 µM; in the assay on HCT-116 colon, over 100 µM; with SK-MEL-5 melanoma, over 100 µM; with NCI-H226 lung, over 100 µM; in the assay on OVCAR-8 ovarian, over 100 µM; in the assay on SNB-75 CNS, 35.1 µM. Moreover, the concentration for total growth inhibition (TGI) in the assay on HCC-2998 colon, in the assay with 786-0 renal and in the assay with UACC-257 melanoma was over 100 µM throughout.
With `O=C(C=Nc1ccccc1C(=O)[O-])c1cccs1.O=C(C=Nc1ccccc1C(=O)[O-])c1cccs1.[Ni+2]`, the TGI in the assay on U251 CNS, in the assay with HCT-116 colon, in the assay on OVCAR-8 ovarian, in the assay on HCC-2998 colon, in the assay on 786-0 renal and in the assay on UACC-257 melanoma was over 100 µM throughout.
Turning to `O=C(Cc1ccccc1[N+](=O)[O-])C(CO)c1ccccc1[N+](=O)[O-]` (configuration not stated), the TGI with U251 CNS, in the assay on HCT-116 colon, with SK-MEL-5 melanoma, in the assay with NCI-H226 lung, in the assay on OVCAR-8 ovarian and with SNB-75 CNS was over 100 µM throughout. The TGI in the assay with HCC-2998 colon, in the assay with 786-0 renal and in the assay with UACC-257 melanoma was over 100 µM throughout.
In the case of `O=[N+]([O-])c1ccc(/C=C/c2nc3ccc(Cl)cc3[nH]2)cc1`, the GI50 in the assay with U251 CNS is 16.3 µM; with HCT-116 colon, 15.7 µM; with SK-MEL-5 melanoma, 31.6 µM; in the assay with NCI-H226 lung, 45.9 µM; in the assay with OVCAR-8 ovarian, 24.5 µM; in the assay with SNB-75 CNS it was 76.9 µM. Further, the GI50 with HCC-2998 colon is 19.5 µM; in the assay with 786-0 renal, 18.7 µM; in the assay with UACC-257 melanoma it was over 100000 nM. Besides, the total growth inhibition concentration (TGI) is 35.3 µM in the assay on U251 CNS; 37.6 µM with HCT-116 colon; over 100 µM with SK-MEL-5 melanoma; over 100 µM with NCI-H226 lung; 63.6 µM with OVCAR-8 ovarian; over 100 µM with SNB-75 CNS. For the same compound, the total growth inhibition concentration (TGI) in the assay on HCC-2998 colon was 88.1 µM; in the assay with 786-0 renal, 43.3 µM; in the assay with UACC-257 melanoma, over 100 µM.
Turning to `Nc1nc(N)c(CCCCc2ccccc2)c(C=O)n1`, the TGI with U251 CNS came out at 49.6 µM; in the assay with HCT-116 colon, 27.9 µM; with SK-MEL-5 melanoma, 34.9 µM; in the assay on NCI-H226 lung it was 53.7 µM; in the assay with OVCAR-8 ovarian, 45 µM; in the assay on SNB-75 CNS, 38 µM. For the same compound, the TGI was 76.6 µM with HCC-2998 colon, 29.4 µM in the assay with 786-0 renal and 33.3 µM in the assay on UACC-257 melanoma.
For `COc1ccc2c(c1)[n+]([O-])c(-c1cccc(Cl)c1)c(N)[n+]2[O-]`, the TGI in the assay on U251 CNS is over 100 µM; in the assay on HCT-116 colon, over 100 µM; with SK-MEL-5 melanoma it was 39.5 µM; with NCI-H226 lung it was over 100 µM; in the assay with OVCAR-8 ovarian, over 100 µM; with 786-0 renal, over 100 µM. This compound had a TGI in the assay with UACC-257 melanoma of 64.7 µM.
Turning to `O=[N+]([O-])c1cc(-c2nc(=S)[nH][nH]2)ccc1O`, the concentration for total growth inhibition (TGI) with U251 CNS, with HCT-116 colon, with SK-MEL-5 melanoma, with HCC-2998 colon, in the assay with 786-0 renal and with UACC-257 melanoma was over 100 µM in each case.
Turning to `O=C(CCC(=O)Nc1ccc(Cl)c(Cl)c1)CC(=O)c1ccc2ccccc2c1`, the TGI with U251 CNS, with HCT-116 colon, with SK-MEL-5 melanoma, with NCI-H226 lung, in the assay with OVCAR-8 ovarian and in the assay on SNB-75 CNS was over 100 µM throughout. Further, the concentration for total growth inhibition (TGI) in the assay with HCC-2998 colon, in the assay on 786-0 renal and with UACC-257 melanoma was over 100 µM each time.
With `O=C1C=C(Nc2ccccc2C(=O)CC(=O)C(=O)Nc2ccc(Cl)cc2)c2ccccc2C1=O`, the TGI in the assay with U251 CNS is 68.2 µM; in the assay on HCT-116 colon it was 28.8 µM; with SK-MEL-5 melanoma it was 15.4 µM; in the assay on NCI-H226 lung, over 56.6 µM; in the assay with OVCAR-8 ovarian, 37.4 µM; in the assay with SNB-75 CNS, 36 µM. In addition, the TGI in the assay with HCC-2998 colon stood at 35.8 µM; in the assay with 786-0 renal, 62.1 µM; in the assay with UACC-257 melanoma it was 21.7 µM.
As to `COc1ccc2c(c1)Oc1cc(O)ccc1[C@H]2c1ccccc1C(=O)NC(C)c1ccccc1` (some centres not stated), the total growth inhibition concentration (TGI) in the assay with U251 CNS amounted to 29.4 µM; in the assay on HCT-116 colon, 26.5 µM; with SK-MEL-5 melanoma, 29.2 µM; in the assay with NCI-H226 lung, 38.8 µM; in the assay on OVCAR-8 ovarian, 36 µM; in the assay with SNB-75 CNS, 35 µM. Also, the TGI in the assay on HCC-2998 colon stood at 30.3 µM; in the assay on 786-0 renal, 34.9 µM; in the assay with UACC-257 melanoma it was 37.3 µM.
In the case of `O=C(O)CN(c1ccccc1)S(=O)(=O)c1cccc([N+](=O)[O-])c1`, the total growth inhibition concentration (TGI) in the assay on U251 CNS, with SK-MEL-5 melanoma, in the assay with NCI-H226 lung, with OVCAR-8 ovarian, in the assay on SNB-75 CNS and with 786-0 renal was over 100 µM throughout. The TGI in the assay with UACC-257 melanoma is over 100 µM.
For `O=C(COc1ccccc1Cl)N1N=C(c2ccccc2)CC1(O)c1ccccc1` (configuration not stated), the TGI was 23.9 µM in the assay with U251 CNS; 51.3 µM in the assay with HCT-116 colon; 35.9 µM with NCI-H226 lung; 32.1 µM in the assay on OVCAR-8 ovarian; over 100 µM in the assay on SNB-75 CNS; 33.6 µM in the assay with HCC-2998 colon. The TGI in the assay on 786-0 renal came to 31 µM; with UACC-257 melanoma, 45.2 µM.
On to `COc1ccc(Nc2nc3cc(C(F)(F)F)ccc3nc2-c2ccccc2)cc1OC`, for which the TGI in the assay with U251 CNS is over 100 µM; in the assay with HCT-116 colon, over 100 µM; in the assay on SK-MEL-5 melanoma, over 100 µM; in the assay with NCI-H226 lung it was 69.7 µM; in the assay with OVCAR-8 ovarian it was over 100 µM; in the assay on SNB-75 CNS it was over 100 µM. In addition, the TGI is over 100 µM in the assay on HCC-2998 colon, over 100 µM in the assay on 786-0 renal and 99.4 µM in the assay on UACC-257 melanoma.
As for `CC(C)(C)N/N=C(\C(=O)Nc1cccc(Cl)c1)C1C(=O)Nc2ccccc2S1=O` (configuration not stated), the total growth inhibition concentration (TGI) in the assay on SK-MEL-5 melanoma, in the assay with NCI-H226 lung, in the assay on OVCAR-8 ovarian, with SNB-75 CNS, with HCC-2998 colon and in the assay on 786-0 renal was over 100 µM each time. Moreover, in the assay on UACC-257 melanoma, the TGI was over 100 µM.
As to `CC1(C)NC(=O)N(CCCCCCN2C(=O)NC(C)(C)C2=O)C1=O`, the TGI with U251 CNS, in the assay with HCT-116 colon, in the assay on NCI-H226 lung, in the assay with OVCAR-8 ovarian, with SNB-75 CNS and with HCC-2998 colon was over 100 µM in each case. Further, the TGI in the assay with 786-0 renal and in the assay on UACC-257 melanoma was over 100 µM throughout.
With `Cc1ccc([Se](=C(C(=O)c2ccccc2)C(=O)c2ccccc2)c2ccc(C)cc2)cc1`, the TGI in the assay with U251 CNS is 68.2 µM; in the assay on HCT-116 colon, over 100 µM; in the assay with SK-MEL-5 melanoma, 37.2 µM; in the assay on NCI-H226 lung, 56.7 µM; in the assay on OVCAR-8 ovarian it was over 100 µM; with SNB-75 CNS, over 100 µM. Moreover, the TGI in the assay on 786-0 renal is over 100 µM; in the assay with UACC-257 melanoma it was 53.1 µM.
With `[O-]/N=[N+](/[O-])C1CCCCC1=[N+]1CCOCC1` (configuration not stated), the TGI with U251 CNS, with HCT-116 colon, in the assay on NCI-H226 lung, in the assay with OVCAR-8 ovarian, in the assay with 786-0 renal and in the assay on UACC-257 melanoma was over 100 µM in each case.
Take `CCCCCCCCCCCCCC[n+]1ccccc1`: the GI50 is 0.426 µM in the assay on U251 CNS; 0.369 µM in the assay on SK-MEL-5 melanoma; 0.523 µM in the assay with SNB-75 CNS; 0.877 µM in the assay with HCC-2998 colon; 1.04 µM in the assay on 786-0 renal; 930 nM in the assay on UACC-257 melanoma. The TGI in the assay on U251 CNS came out at 1.77 µM; in the assay on SK-MEL-5 melanoma, 1.43 µM; in the assay with SNB-75 CNS, 2.22 µM; in the assay on HCC-2998 colon, 2.31 µM; in the assay on 786-0 renal, 2.42 µM; in the assay with UACC-257 melanoma, 3.07 µM.
As for `COc1cccc2c1OC1Sc3ccccc3-c3nn(-c4ccccc4)c-2c31` (configuration not stated), the TGI in the assay with U251 CNS, with HCT-116 colon, in the assay with OVCAR-8 ovarian, in the assay with SNB-75 CNS, in the assay on HCC-2998 colon and in the assay with 786-0 renal was over 100 µM each time. This compound gave a concentration for total growth inhibition (TGI) in the assay with UACC-257 melanoma of over 100 µM.
Consider `N/C=N/S(=O)(=O)c1ccc(NC(=O)COC(=O)c2cccc3c(=O)c4ccccc4[nH]c23)cc1`, for which the TGI with U251 CNS, with HCT-116 colon, in the assay with SK-MEL-5 melanoma, in the assay with NCI-H226 lung, in the assay with OVCAR-8 ovarian and with SNB-75 CNS was over 100 µM each time. The TGI with 786-0 renal and in the assay with UACC-257 melanoma was over 100 µM throughout.
For the compound `COC(=O)Cc1c([C@@]2(C)CCCC(C)(C)C2)ccc2c1C(=O)OC2`, the TGI is 29.7 µM in the assay with U251 CNS; 22 µM in the assay with HCT-116 colon; 25.6 µM in the assay with SK-MEL-5 melanoma; 28.4 µM in the assay with NCI-H226 lung; over 100 µM in the assay with OVCAR-8 ovarian; 28.7 µM with SNB-75 CNS. The results for the TGI in the assay on 786-0 renal and in the assay with UACC-257 melanoma were 30.8 µM and 22.8 µM, respectively.
Take `COC(=O)[C@H](CC(C)C)NC(=O)[C@H](Cc1ccccc1)N1CC2C=CC1C2` (some centres not stated): the TGI in the assay on U251 CNS, with SK-MEL-5 melanoma, with NCI-H226 lung, in the assay on OVCAR-8 ovarian, in the assay with SNB-75 CNS and with HCC-2998 colon was over 100 µM each time. Also, the TGI in the assay on 786-0 renal and in the assay with UACC-257 melanoma was over 100 µM each time.

The term TGI denotes the concentration giving total growth inhibition. A low value points to more potent growth arrest. As usually defined, the GI50 is the concentration giving 50% growth inhibition.
